Data on 17 molecules can be found in paper PMC9352230 (ACS Omega, 2022).

“Also recorded” adds a separate entry of the source. Like-named read-outs stand apart in the source and are kept apart here.

Assay [1] deals with ENPP1. The following applies: read-out: ENPP1 IC50, cited from earlier work.
Assay [2] has as its target T1, ENPP1 (Homo sapiens, UniProt P22413).
T1 sequence (P22413 1-925): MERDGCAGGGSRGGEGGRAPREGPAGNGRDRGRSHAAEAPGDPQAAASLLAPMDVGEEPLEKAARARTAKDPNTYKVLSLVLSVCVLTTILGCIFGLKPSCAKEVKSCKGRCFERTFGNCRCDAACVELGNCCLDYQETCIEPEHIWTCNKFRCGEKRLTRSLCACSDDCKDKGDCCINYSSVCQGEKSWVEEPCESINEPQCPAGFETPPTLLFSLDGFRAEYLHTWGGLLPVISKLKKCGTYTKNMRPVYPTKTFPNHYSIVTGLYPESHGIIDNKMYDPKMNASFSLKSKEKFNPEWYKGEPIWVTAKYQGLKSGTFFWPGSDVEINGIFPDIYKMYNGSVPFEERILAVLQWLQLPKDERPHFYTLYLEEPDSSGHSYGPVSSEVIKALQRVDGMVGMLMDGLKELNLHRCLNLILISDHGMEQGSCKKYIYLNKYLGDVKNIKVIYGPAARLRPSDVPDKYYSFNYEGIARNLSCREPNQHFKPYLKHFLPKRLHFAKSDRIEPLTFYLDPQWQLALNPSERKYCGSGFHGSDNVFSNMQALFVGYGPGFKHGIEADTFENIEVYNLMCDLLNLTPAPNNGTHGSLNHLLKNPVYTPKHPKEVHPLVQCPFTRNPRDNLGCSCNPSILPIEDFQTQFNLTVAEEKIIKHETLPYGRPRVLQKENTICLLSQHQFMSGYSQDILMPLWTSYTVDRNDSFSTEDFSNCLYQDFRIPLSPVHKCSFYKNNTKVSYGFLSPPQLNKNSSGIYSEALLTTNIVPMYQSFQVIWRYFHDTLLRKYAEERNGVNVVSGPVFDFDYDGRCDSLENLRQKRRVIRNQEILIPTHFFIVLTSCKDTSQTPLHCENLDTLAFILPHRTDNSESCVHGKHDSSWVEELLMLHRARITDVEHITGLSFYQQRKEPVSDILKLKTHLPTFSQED
Nature of the assay: ENPP1 enzyme inhibition assay. The following applies: for inhibition at 100 µM: read-out: ENPP1 % inhibition ± SD. It is filed as biochemical.

The target of assay [3] is T2, ENPP3 (Homo sapiens, UniProt O14638).
T2 sequence (O14638 1-875): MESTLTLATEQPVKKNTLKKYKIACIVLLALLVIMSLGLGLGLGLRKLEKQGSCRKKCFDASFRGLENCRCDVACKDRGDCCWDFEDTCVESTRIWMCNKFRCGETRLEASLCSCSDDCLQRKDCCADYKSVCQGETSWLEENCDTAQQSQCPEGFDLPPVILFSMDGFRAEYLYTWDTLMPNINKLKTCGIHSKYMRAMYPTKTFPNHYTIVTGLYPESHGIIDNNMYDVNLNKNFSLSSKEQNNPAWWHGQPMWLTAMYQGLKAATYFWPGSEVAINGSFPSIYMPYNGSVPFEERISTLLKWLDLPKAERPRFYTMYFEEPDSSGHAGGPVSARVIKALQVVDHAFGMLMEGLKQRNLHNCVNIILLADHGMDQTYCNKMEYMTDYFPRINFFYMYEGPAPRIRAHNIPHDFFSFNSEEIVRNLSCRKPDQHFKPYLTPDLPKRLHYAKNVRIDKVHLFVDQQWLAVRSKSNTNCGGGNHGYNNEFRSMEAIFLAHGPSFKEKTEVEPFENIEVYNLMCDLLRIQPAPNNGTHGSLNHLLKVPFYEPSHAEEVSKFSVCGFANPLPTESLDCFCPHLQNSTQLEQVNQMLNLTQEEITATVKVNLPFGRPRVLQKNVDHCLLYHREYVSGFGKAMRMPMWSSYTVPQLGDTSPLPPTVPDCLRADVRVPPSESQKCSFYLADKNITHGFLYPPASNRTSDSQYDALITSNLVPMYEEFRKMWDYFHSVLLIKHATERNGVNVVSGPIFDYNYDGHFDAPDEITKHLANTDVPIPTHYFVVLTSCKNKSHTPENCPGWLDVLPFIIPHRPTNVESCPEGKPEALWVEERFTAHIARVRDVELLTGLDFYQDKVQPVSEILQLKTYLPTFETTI
The experiment in a line: ENPP3 enzyme inhibition assay. Format: biochemical. The following applies: for inhibition at 100 µM: read-out: ENPP3 % inhibition ± SD.

Assay [4] relates to MCF7 (human breast cancer cell line). The experiment in a line: MTT cytotoxicity assay, MCF7. Format: cell-based. To be noted: MCF7, 24 h, read-out: MCF7 (% inhibition ±SD).
Assay [5] has as its system HEK293 (human embryonic kidney cell line). Nature of the assay: MTT cytotoxicity assay, HEK293. It is filed as cell-based. To be noted: for inhibition at 100 µM: Homo sapiens, HEK293, 24 h, read-out: HEK293 (% inhibition ±SD).
For assay [6], the target named is T2, ENPP3. The experiment in a line: Enzyme kinetic study, Lineweaver-Burk plots, ENPP3. It is filed as biochemical. The following applies: triplicates.
Assay [7] concerns the target T1, ENPP1. Nature of the assay: Enzyme kinetic study, Lineweaver-Burk plots, ENPP1. It is filed as biochemical. The following applies: triplicates.
Assay [8] concerns HeLa (human cervical cancer cell line). Nature of the assay: MTT cytotoxicity assay, HeLa. It is filed as cell-based. The following applies: 100 μM compound, 24 h treatment, triplicate.

With `Cc1ccc(S(=O)(=O)Oc2ccc(-c3sc4cc(OS(=O)(=O)c5ccc(C)cc5)ccc4c3C(=O)c3ccc(OCCN4CCCCC4)cc3)cc2)cc1` [3-(4-(2-(piperidin-1-yl)ethoxy)benzoyl)-2-(4-(tosyloxy)phenyl)benzo[b]thiophen-6-yl-4-methylbenzenesulfonate], the IC50 in the assay on ENPP1 [1] (selective inhibition of ENPP1) was 450 nM.
The molecule `CC1(C(=O)Nc2ccc(OS(=O)(=O)c3ccccc3F)cc2)c2ccccc2-c2ccccc21` [7a, 4-(9-Methyl-9H-fluorene-9-carboxamido)phenyl 2-Fluorobenzenesulfonate] registered an IC50 against ENPP1 [2] of 810 ± 50 nM. For the same molecule, the inhibition at 100 µM at ENPP3 [3] worked out at 28.2 ± 3.22%; in assay [4] it was 12.7 ± 0.62%; in assay [5], 14.6 ± 1.12%.
Turning to `CC1(C(=O)Nc2ccc(OS(=O)(=O)C(F)(F)F)cc2)c2ccccc2-c2ccccc21` [7b, 4-(9-Methyl-9H-fluorene-9-carboxamido)phenyl Trifluoromethanesulfonate], the IC50 was determined as 900 ± 160 nM against ENPP1 [2] and 4160 ± 220 nM at ENPP3 [3]. Further, the inhibition at 100 µM in assay [4] is 14.1 ± 0.63%; in assay [5], 24.5 ± 1.16%.
`Cc1ccc(S(=O)(=O)Oc2ccc(NC(=O)C3(C)c4ccccc4-c4ccccc43)cc2)cc1` [7e, 4-(9-Methyl-9H-fluorene-9-carboxamido)phenyl 4-Methylbenzenesulfonate]: the concentration for half-maximal inhibition (IC50) against ENPP1 [2] turned out to be 18900 ± 540 nM; against ENPP3 [3], 380 ± 130 nM. The “mode of inhibition of ENPP3” value on ENPP3 [6] is given as “competitively”. The inhibition at 100 µM came out at 0.3 ± 0.15% in assay [4] and 12.4 ± 1.42% in assay [5].
Take `CC1(C(=O)Nc2ccc(OS(=O)(=O)c3ccc(F)cc3)cc2)c2ccccc2-c2ccccc21` [7c, 4-(9-Methyl-9H-fluorene-9-carboxamido)phenyl 4-Fluorobenzenesulfonate]: the half-maximal inhibitory concentration (IC50) against ENPP1 [2] stood at 500 ± 30 nM; against ENPP3 [3] it was 6690 ± 1890 nM. The inhibition at 100 µM in assay [4] is 12.4 ± 1.22%; in assay [5] it was 9.2 ± 0.42%.
Consider `O=C(NS(=O)(=O)c1ccccc1)n1ccc2cccnc21` [N-(pyrrolo[2,3-b]pyridine-1-carbonyl)benzenesulfonamide], for which, in the assay on ENPP1 [1] (selective inhibitor of ENPP1), the IC50 is 4500 ± 160 nM.
In turn, `CC1(C(=O)Nc2ccc(OS(=O)(=O)c3ccccc3)cc2)c2ccccc2-c2ccccc21` [7f, 4-(9-Methyl-9H-fluorene-9-carboxamido)phenyl Benzenesulfonate] had an IC50 against ENPP1 [2] of 8450 ± 250 nM. The inhibition at 100 µM worked out at 42.1 ± 2.44% at ENPP3 [3], 5.6 ± 1.11% in assay [4] and 6.2 ± 1.17% in assay [5].
`O=C(Nc1ccc(OS(=O)(=O)c2ccc(F)cc2)cc1)c1ccccc1` [4s, 4-Benzamidophenyl 4-Fluorobenzenesulfonate]: the concentration for half-maximal inhibition (IC50) against ENPP1 [2] came to 5760 ± 570 nM; on ENPP3 [3], 2950 ± 250 nM. The results for the inhibition at 100 µM in assay [4] and in assay [5] were 2.1 ± 0.08% and 20.6 ± 1.14%, respectively.
Turning to `CCCCc1ccc(S(=O)(=O)Oc2ccc(NC(=O)c3ccc(C)cc3)cc2)cc1` [4j, 4-(4-Methylbenzamido)phenyl 4-Butylbenzenesulfonate], at ENPP1 [2], the IC50 stood at 230 ± 30 nM. Also, the values for the inhibition at 100 µM (at ENPP3 [3]; in assay [4]; in assay [5]) were 42.1 ± 3.43%, 13.3 ± 0.73% and 27.6 ± 2.55%, respectively. Also, the “mode of inhibition of ENPP1” value on ENPP1 [7] is “uncompetitive; also recorded: uncompetitively”.
Turning to `Cc1ccc(C(=O)Nc2ccc(OS(=O)(=O)c3ccc(-c4ccccc4)cc3)cc2)cc1` [4h, 4-(4-Methylbenzamido)phenyl [1,1′-Biphenyl]-4-sulfonate], at ENPP1 [2], half-maximal inhibition (IC50) required 1730 ± 30 nM. Besides, the inhibition at 100 µM came out at 27.1 ± 4.54% at ENPP3 [3], 9.1 ± 0.71% in assay [4] and 4.8 ± 0.24% in assay [5].
With `CC1(C(=O)Nc2ccc(OS(C)(=O)=O)cc2)c2ccccc2-c2ccccc21` [7d, 4-(9-Methyl-9H-fluorene-9-carboxamido)phenyl Methanesulfonate], the inhibition at 100 µM worked out at 9.2 ± 4.13% on ENPP1 [2], 0.2 ± 0.06% in assay [4] and 5.5 ± 0.36% in assay [5]. Besides, on ENPP3 [3], the concentration for half-maximal inhibition (IC50) was 160 ± 10 nM.
As for `O=C(Nc1ccc(OS(=O)(=O)c2ccc(OC(F)(F)F)cc2)cc1)c1ccccc1` [4t, 4-Benzamidophenyl 4-(trifluoromethoxy)benzenesulfonate], the values for the inhibition at 100 µM (on ENPP1 [2]; in assay [4]; in assay [5]) were 41.4 ± 3.24%, 29.6 ± 1.22% and 8.6 ± 0.14%, respectively. Moreover, on ENPP3 [3], the midpoint of inhibition, the IC50, lay at 150 ± 40 nM.
As for `Cc1ccc(C(=O)Nc2ccc(OS(=O)(=O)Cc3ccccc3)cc2)cc1` [4i, 4-(4-Methylbenzamido)phenyl Phenylmethanesulfonate], the IC50 against ENPP1 [2] stood at 130 ± 10 nM. Also, the inhibition at 100 µM at ENPP3 [3] was 46.7 ± 1.54%; in assay [4], 5.7 ± 0.06%; in assay [5] it was 11.2 ± 0.92%.
In the case of `Cc1ccc(C(=O)Nc2ccc(OS(=O)(=O)c3ccccc3F)cc2)cc1` [4l, 4-(4-Methylbenzamido)phenyl 2-Fluorobenzenesulfonate], the concentration for half-maximal inhibition (IC50) came to 150 ± 10 nM against ENPP1 [2] and 3480 ± 340 nM on ENPP3 [3]. Besides, the figures for the inhibition at 100 µM in assay [4] and in assay [5] were 0.5 ± 0.03% and 17.4 ± 0.83%, respectively.
On to `Cc1ccc(C(=O)Nc2ccc(OS(=O)(=O)c3ccccc3)cc2)cc1` [4b, 4-(4-methylbenzamido)phenyl Benzenesulfonate], for which the inhibition at 100 µM was determined as 45.2 ± 1.53% at ENPP1 [2], 7.4 ± 0.04% in assay [4] and 6.4 ± 0.22% in assay [5]. This molecule showed an IC50 against ENPP3 [3] of 29800 ± 2130 nM.
On to `Cc1ccc(C(=O)Nc2ccc(OS(=O)(=O)c3ccc(I)cc3)cc2)cc1` [4c, 4-(4-methylbenzamido)phenyl 4-Iodobenzenesulfonate], for which the concentration for half-maximal inhibition (IC50) on ENPP1 [2] was 14400 ± 540 nM; against ENPP3 [3] it was 4230 ± 380 nM. Also, the inhibition at 100 µM in assay [4] is 33.2 ± 1.32%; in assay [5] it was 15.2 ± 0.83%.
For the molecule `N.N.[Cl][Pt][Cl]` [cisplatin, reference compound], the “HeLa cell line (% inhibition ±SD)” value in assay [8] is given as 84.3 ± 2.72%. In addition, the “HEK293 (% inhibition ±SD)” value in assay [5] (100 μM compound, MTT, 24 h treatment, triplicate, normal cell line) was 65.5 ± 1.48%.
